Laboratory results taken from patent publication US9260376B2, “Compounds for use in the treatment of immune related inflammatory disease” (VENANTIUS LIMITED, priority 2011, dated 2016).
Marks after values point to notes of the source that are not given here.

Experiments:
5% DSS murine colitis [1] = experiment: Acute murine 5% DSS colitis model, Experiment 1; type: in vivo; conditions: for DAI at day 7: 10 mg/kg daily for 7 days, vehicle 9.3±0.51; for DAI on the day of autopsy versus vehicle controls: compound 6 3-30 mg/kg at each dose level; for colon pathology (histology scores) relative to vehicle: compound 6 at both 10 and 30 mg/Kg, prednisolone 5 mg/Kg; for colon IL1β level / colon IL6 level / colon TNFα level: day 7; for colon IL1β level: DSS-elevated 0.744±0.076 ng/mg; for colon IL6 level: DSS-elevated 1.057±0.1784 ng/mg; for colon TNFα level: DSS-elevated 1.478±0.378 ng/mg
Description: The study is widely used as a model for studying the pathogenesis of UC and also for screening new therapeutic interventions for the treatment of UC.
In these studies, an acute colitis model was used, with 5% DSS administered in the drinking water of BALB/c mice. This dosage regime induces severe acute colitis, by days 7-8 mice had overt rectal bleeding and marked weight loss; unless sacrificed beforehand, all mice would have died by days 10-12.
Specific Pathogen-Free BALB/c mice, 6-8 weeks of age, were obtained from a commercial supplier (Harlan UK). Mice were fed irradiated diet and housed in individually ventilated cages (Tecniplast UK) under positive pressure.
DSS (5%) was dissolved in drinking water. Compounds were administered orally at a dose of 10 mg/kg or 30 mg/kg on days 0-7, and mice were culled on day 8 or day 9, depending on the severity of the disease. The mice were checked each day for morbidity and the weight of individual mice was recorded. Induction of colitis was determined upon autopsy, length of colon and histology. Colons were recovered and stored at −20° C. for immunological analysis. All of the compounds and experimental groups are randomly alphabetically labelled. Throughout experiments all data recording was performed in a blind manner. The codes on boxes/groups were not broken until after the data was analysed i.e. boxes labelled A, B, C etc were identified as untreated, DSS-treated, or DSS+compound-treated.
To quantify the extent of colitis, a disease activity index (DAI) was determined based on weight loss, faecal blood and stool consistency. A score was given for each parameter, with the sum of the scores used as the DAI. For each treatment group n=8.
All compounds were prepared for oral gavage (0.1 mL per os (p.o.) per 10 g body weight) as a suspension in 0.5% carboxymethyl cellulose/2% Tween 80, at a dose of 3-30 mg/Kg.

[2] = Partition coefficient (log P), HPLC method; type: physicochemical; conditions: reverse phase C18 HPLC; for Acid Log10 POW: acidic pH; for Basic Log10 POW: alkaline pH; for Neutral Log10 POW: neutral pH
Description: The partition coefficient of compound 5 and related analogous compounds was investigated using the HPLC method (reverse phase C18 HPLC column) at neutral, acidic and alkaline pH.

[3] = test system: chronic colitis in IL10-/- mice; experiment: Chronic IL10-/- colitis model; type: in vivo, IL10-/- BALB/c strain mice; conditions: 300 mg/kg/week oral, MWF
Method: FIG. 15: Is a group showing weight loss in IL10^−−/−− mice treated with vehicle or compound 6. Mice were administered compound 6 (300 mg/kg/week) or vehicle orally on a Monday/Wednesday/Friday (MWF) dosing schedule. Mice were ˜4 weeks of age at start of experiment and were treated for 9 weeks. Mice were weighed weekly and data are presented as Mean±SEM from 9-12 mice per group. Mice were monitored for overt disease, rectal prolapse, and moribund animals were humanely killed;
Mice with a deletion in the IL10^−−/−− gene spontaneously develop chronic colitis, with the age of onset and the severity of the disease being dependent on background mouse strain and the conditions in which the animals are housed. The onset of colitis in IL10^−−/−− mice housed under the conditions used in this study was also strain dependent, with an earlier onset and greater severity, in terms of mortality, in BALB/c strain mice relative to C57BL/6 strain animals. In this experiment, animals received oral treatment on a MWF regime over 9 weeks. Initially, both groups of mice progressively gain weight (FIG. 15). […] By week 9 animals had marked weight loss, with one moribund animal humanely killed on day 60 in each group. As other mice were losing weight and developing clinical symptoms of disease, both groups were culled at week 9 (day 63) and analysed.

[4] = Solubility in water and buffers; type: physicochemical
Method: The sodium salt, potassium salt, calcium salt, α-methylbenzylamine salt and N-Methyl-(D)-Glucamine salt were synthesised. The sodium and calcium salt were unsuccessful. The three salts of compound 5, named potassium salt, α-methylbenzylamine salt and N-Methyl-(D)-Glucamine salt were used for solubility and partition coefficient (log P) studies.
The solubility of the four compounds were determined: […]

5% DSS murine colitis [5] = experiment: DSS murine colitis, Experiment 2 (Method 2); type: in vivo, BDF1 male mice; conditions: 31 at 2 mg/ml, 47 at 4 mg/ml, 10 ml/kg oral gavage daily day 0-6; 5-ASA 100 mg/kg
Method: A total of 90 BDF1 (H. pylori-free, murine norovirus-free) male mice (Harlan Laboratories, UK) were used in the study. Animals were 8-10 weeks old on supply and used at 10-12 weeks of age. All mice were held in individually ventilated cages (IVCs) in an SPF (Specific Pathogen Free) barrier unit. The animals were identified by numbered cages and by ear punches.
DSS (MP Biomedicals 0216011090, lot# M2709) was prepared as a 5% (w/v) solution in the drinking water and made fresh daily on days 0 to 6 inclusive. DSS was administered from day 0 to day 7.
Test items were stored at −20° C. until the initiation of the study. Each test item was formulated as a homogenous suspension in 0.5% carboxymethyl cellulose (CMC, Sigma C4888) in sterile water (Sigma W3500, lot# RNBC1419), using an Ultraturax homogeniser, on study day −1. Compound 31 was formulated at 2 mg/ml and 47 was formulated at 4 mg/ml. After formulation the test item and the vehicle stocks anonymised with a letter code. All solutions were stored at 4° C. during the study, with 3.8 ml of each suspension being dispensed daily. Test items were administered by oral gavage, daily at 09.00 hrs, at 10 ml/kg, from study day 0 to study day 6.
5-ASA (5-Aminosalicylic acid, Sigma A3537, lot#051M1878V) was aliquoted into preweighed amounts between 71 and 84 mg. Like test item suspensions, these aliquots were anonymised by a letter code. Individual aliquots were formulated as a 10 mg/ml suspension in 0.5% CMC (Sigma C4888) in sterile water (Sigma W3500, lot# RNBC1419) on each day of dosing. 5-ASA was administered by oral gavage, daily at 09.00 hrs, at 10 ml/kg to give a dose of 100 mg/kg, from study day 0 to study day 6. 2.5 Clinical examinations
Any animal was culled if the weight loss was greater than 20%. Animal well-being was monitored daily. Once daily from day 0 until the end of the study, all mice were weighed and assessed for stool consistency, and the presence of overt blood in the stool or around the anus according to the criteria in 2.1
At necropsy, observation of stool in the large bowel was used to supplement in-life observation. […]

[6] = compound 6 10 and 30 mg/kg groups, Prednisolone 5 mg/kg
[7] = compound 6 30 mg/kg, Prednisolone 5 mg/kg

## O=C(O)c1ccc(C[C@@]2(C3=Cc4ccccc4C3)Cc3ccccc3[C@H]2O)cc1 (single isomer, unassigned) [Compound 2]
5% DSS murine colitis [1]; 30 mg/kg p.o. daily for 7 days
  activity in 5% DSS murine colitis model: highly active

## O=C(O)c1ccc(C[C@]2(C3=Cc4ccccc4C3)Cc3ccccc3[C@@H]2O)cc1 (single isomer, unassigned) [Compound 3]
5% DSS murine colitis [1]; 30 mg/kg p.o.
  DAI at day 6 versus vehicle: no statistical (P>0.05) difference
5% DSS murine colitis [1]; 30 mg/kg p.o. daily for 7 days
  activity in 5% DSS murine colitis model: minimal activity

## O=C(O)c1ccc(C[C@@]2(C3=Cc4ccccc4C3)Cc3ccccc3[C@@H]2O)cc1 [Compound 4, 4-(((1R,2S)-1-hydroxy-2,3-dihydro-1H,1′H-2,2′-biinden-2-yl)methyl)benzoic acid]
5% DSS murine colitis [1]; 30 mg/kg p.o. daily for 7 days
  activity in 5% DSS murine colitis model: almost devoid of activity
5% DSS murine colitis [1]; 30 mg/kg p.o. daily for 7 days, vehicle controls 9.0±0.53
  disease activity index (DAI) at day 7: without activity

## O=C(O)c1ccc(C[C@]2(C3=Cc4ccccc4C3)Cc3ccccc3[C@H]2O)cc1 [Compound 5, 4-(((1S,2R)-1-hydroxy-2,3-dihydro-1H,1′H-2,2′-biinden-2-yl)methyl)benzoic acid]
5% DSS murine colitis [1]
  DAI at day 7: no significant (P>0.05) effect
5% DSS murine colitis [1]; 30 mg/kg p.o. daily for 7 days
  activity in 5% DSS murine colitis model: highly active
[2]
  Acid Log10 POW: 3.9
  Basic Log10 POW: 3.7
  Neutral Log10 POW: 3.7

## O=C(O)c1ccc(C[C@@]2(C3=Cc4ccccc4C3)Cc3ccccc3[C@H]2O)cc1 [Compound 6, 6-(Methylamino)hexane-1,2,3,4,5-pentanol 4-(((1S,2S)-1-hydroxy-2,3-dihydro-1H,1′H-2,2′-biinden-2-yl)methyl)benzoate]
[3]
  survival over the 9 weeks, Kaplan-Meier analysis versus vehicle: no statistical difference in survival
[3]; vehicle stopped gaining weight from week 5
  weight gain: maintained weight gain until week 8
[3]; week 9
  Serum Amyloid A (SAA) levels relative to vehicle: significantly (P<0.05; Student's t-test) reduced
  extent of colon pathology (histology score) relative to vehicle: significantly reduced
5% DSS murine colitis [1]; 3 mg/kg
  inhibition of colon shortening (colon length) versus vehicle, day 7: did not have a significant effect
5% DSS murine colitis [1]; compound 6 30 mg/Kg versus prednisolone 5 mg/Kg
  therapeutic efficacy in the DSS model: comparable, or better, efficacy relative to prednisolone
5% DSS murine colitis [1]; compound 6 30 mg/kg, P<0.05
  colon length compared with Prednisolone, day 7: significantly better than Prednisolone
5% DSS murine colitis [1]; Prednisolone 5 mg/kg
  DAI on the day of autopsy versus vehicle controls: significantly (P<0.05-P<0.01) lower DAI than vehicle controls
5% DSS murine colitis [1]; [6]
  inhibition of colon shortening (colon length) versus vehicle, day 7: did have a significant effect
5% DSS murine colitis [1]
  colon pathology (histology scores) relative to vehicle: dose-dependent and highly statistically significant reduction
5% DSS murine colitis [1]; [7]
  colon IL1β level: significant (P<0.05, 30 mg/kg) and dose-dependant reduction
  colon IL6 level: significant (P<0.05, 30 mg/kg) and dose-dependant reduction
  colon TNFα level: significant (P<0.05, 30 mg/kg) and dose-dependant reduction
5% DSS murine colitis [1]; oral daily for 7 days, 3, 10 and 30 mg/Kg
  overt reactions in mice: no overt reactions
[2]
  Acid Log10 POW: 2.6
  Basic Log10 POW: 4.3
  Neutral Log10 POW: 3.5

## CNCC(O)C(O)C(O)C(O)CO.O=C(O)c1ccc(C[C@]2(C3=Cc4ccccc4C3)Cc3ccccc3[C@H]2O)cc1 [Compound 7, 6-(Methylamino)hexane-1,2,3,4,5-pentanol 4-(((1S,2R)-1-hydroxy-2,3-dihydro-1H,1′H-2,2′-biinden-2-yl)methyl)benzoate]
[4]; Milli-RO water, listed as Compound 5 N-Methyl-D-Glucamine salt
  solubility, Milli-RO H20: >60,000* μg/mL
[4]; pH 4.0 buffer
  solubility, pH 4.0 Buffer: 0.14 μg/mL
[4]; pH 7.0 buffer, listed as Compound 5 N-Methyl-D-Glucamine salt
  solubility, pH 7.0 Buffer: >60,000* μg/mL
[4]; pH 9.0 buffer, listed as Compound 5 N-Methyl-D-Glucamine salt
  solubility, pH 9.0 Buffer: >60,000* μg/mL
5% DSS murine colitis [1]
  DAI at day 7: no significant (P>0.05) effect
[2]
  Acid Log10 POW: 3.8
  Basic Log10 POW: 3.5
  Neutral Log10 POW: 3.5

## NCC(=O)O[C@@H]1c2ccccc2C[C@@]1(Cc1ccc(C(=O)O)cc1)C1=Cc2ccccc2C1 [Compound 31, 4-{[(1′S,2′S)-1′-(glycyloxy)-1′,3′-dihydro-1H,2′H-2,2′-biinden-2′-yl]methyl}benzoic acid]
5% DSS murine colitis [5]
  DAI at day 7 in comparison with vehicle: reduced DAI comparable or equal to 5ASA

## C[C@]12C=CC(=O)C=C1CC[C@@H]1[C@@H]2[C@@H](O)C[C@@]2(C)[C@H]1CC[C@]2(O)C(=O)CO [Prednisolone, reference compound]
5% DSS murine colitis [1]; Prednisolone 5 mg/kg
  DAI on the day of autopsy versus vehicle controls: significantly (P<0.01; ANOVA; Dunnett Multiple Comparison Test) reduced DAI scores
5% DSS murine colitis [1]; [6]
  inhibition of colon shortening (colon length) versus vehicle, day 7: did have a significant effect
5% DSS murine colitis [1]
  colon pathology (histology scores) relative to vehicle: no significant improvement
5% DSS murine colitis [1]; [7]
  colon IL1β level: reduced (p<0.05)
  colon IL6 level: reduced (p<0.05)
  colon TNFα level: reduced (p<0.05)
